The numbers were not newly measured in patent US20070207944A1, “Blood Pressure Lowering Oligopeptides” (priority 2004, published 2007), which cites them from elsewhere.

In one data set the target is ACE (Homo sapiens, UniProt P12821). The note with it: for ACE inhibiting activity: in vitro, as reported in the literature.
Data set [1] relates to spontaneously hypertensive rats. Particulars: Nakamura et al. 1995, tripeptides from fermented milk.

Chain of ACE (P12821 30-1306, species assumed): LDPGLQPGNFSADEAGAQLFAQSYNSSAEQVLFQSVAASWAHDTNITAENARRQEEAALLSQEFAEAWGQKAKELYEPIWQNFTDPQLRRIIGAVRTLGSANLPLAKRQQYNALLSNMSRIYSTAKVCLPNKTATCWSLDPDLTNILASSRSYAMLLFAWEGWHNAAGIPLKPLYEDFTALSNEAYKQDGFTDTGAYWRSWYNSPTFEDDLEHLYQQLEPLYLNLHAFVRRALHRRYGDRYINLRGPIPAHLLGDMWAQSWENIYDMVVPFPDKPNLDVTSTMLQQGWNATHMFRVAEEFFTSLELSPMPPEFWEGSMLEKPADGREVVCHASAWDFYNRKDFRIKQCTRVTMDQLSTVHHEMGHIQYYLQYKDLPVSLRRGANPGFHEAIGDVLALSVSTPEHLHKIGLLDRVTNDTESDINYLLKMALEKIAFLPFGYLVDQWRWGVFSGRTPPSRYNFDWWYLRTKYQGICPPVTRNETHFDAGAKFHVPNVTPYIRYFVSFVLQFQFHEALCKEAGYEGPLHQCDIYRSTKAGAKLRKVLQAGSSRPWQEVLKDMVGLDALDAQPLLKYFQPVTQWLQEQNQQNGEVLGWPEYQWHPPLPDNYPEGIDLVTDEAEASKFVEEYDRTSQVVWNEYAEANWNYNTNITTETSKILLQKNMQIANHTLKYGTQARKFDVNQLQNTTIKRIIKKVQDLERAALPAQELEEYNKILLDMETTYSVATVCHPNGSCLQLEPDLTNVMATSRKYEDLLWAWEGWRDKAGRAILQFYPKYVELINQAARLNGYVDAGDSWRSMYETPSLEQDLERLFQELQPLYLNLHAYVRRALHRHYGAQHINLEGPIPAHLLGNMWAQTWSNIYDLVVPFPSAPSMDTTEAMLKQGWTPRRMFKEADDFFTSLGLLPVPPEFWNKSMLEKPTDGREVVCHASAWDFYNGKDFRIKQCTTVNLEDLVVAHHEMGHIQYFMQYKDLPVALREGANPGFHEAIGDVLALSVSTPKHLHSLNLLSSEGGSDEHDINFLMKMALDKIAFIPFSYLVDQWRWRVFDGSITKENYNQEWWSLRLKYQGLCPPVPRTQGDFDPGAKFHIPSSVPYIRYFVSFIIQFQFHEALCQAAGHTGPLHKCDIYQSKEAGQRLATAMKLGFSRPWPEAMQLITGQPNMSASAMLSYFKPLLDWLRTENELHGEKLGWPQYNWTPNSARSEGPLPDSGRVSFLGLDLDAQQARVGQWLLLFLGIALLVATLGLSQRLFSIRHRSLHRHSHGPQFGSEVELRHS

Ile-Pro-Pro [IPP]: the “ACE inhibiting activity” value at ACE is on record as “Strong ACE inhibiting activities”. For the same substance, the antihypertensive effects result in data set [1] is on record as “could be confirmed”.
Regarding Val-Pro-Pro [VPP], the “ACE inhibiting activity” value on ACE is recorded as “Strong ACE inhibiting activities”. The IC50 (usually the concentration needed to halve the response being measured) at ACE (reported by EP 0 583 074, read-out: IC50 value (ACE inhibition)) is 9 µM. Also, the antihypertensive effects result in data set [1] was “could be confirmed”.
Leu-Pro-Pro [LPP]: the “ACE inhibiting activity” value at ACE is reported as “Strong ACE inhibiting activities”.
